Each structure is given as a SMILES string.

A short description of the first data set: Log P, partition coefficient between water and octanol. Format: physicochemical. From the text:
Log P is the partition coefficient between water and octanol.
On to `CC1COC(Cn2cncn2)(c2ccc(Oc3ccc(Cl)cc3)c(F)c2)O1` (stereo not drawn) [Example 32, 1-{2-[4-(4-Chloro-phenoxy)-3-fluoro-phenyl]-4-methyl-[1,3]dioxolan-2-ylmethyl}-1H-[1,2,4]triazole], for which the logP (in general, a log measure of how a compound divides between an organic and an aqueous phase) was found to be 4.2. Same read-out and setting: in the case of `CC1COC(Cn2ncnc2S)(c2cc(F)c(Oc3ccccc3)cc2F)O1` (stereo not drawn) [Example 64, 2-{2-[2,5-Difluoro-4-phenoxy-phenyl]-4-methyl-[1,3]dioxolan-2-yl-methyl}-2H-[1,2,4]triazole-3-thiol] it was 2.9; in that of `CCC1COC(Cn2cncn2)(c2ccc(Oc3ccc(Cl)cc3)cc2Cl)O1` (stereo not drawn) [Example 38, 1-{2-[2-Chloro-4-(4-chloro-phenoxy)-phenyl]-4-ethyl-[1,3]dioxolan-2-ylmethyl}-1H-[1,2,4]triazole], 5. On the same count and under the same terms, the same measure for `CCCC1COC(Cn2cncn2)(c2ccc(Oc3ccc(Cl)cc3)cc2Cl)O1` (stereo not drawn) [Example 39, 1-{2-[2-Chloro-4-(4-chloro-phenoxy)-phenyl]-4-propyl-[1,3]dioxolan-2-ylmethyl}-1H-[1,2,4]triazole]: 5.4. Same read-out and setting: the same measure for `CC1COC(Cn2cncn2)(c2cc(F)c(Oc3ccccc3)c(F)c2)O1` (stereo not drawn) [Example 41, 1-{2-[3,5-Difluoro-4-phenoxy-phenyl]-4-methyl-[1,3]dioxolan-2-ylmethyl}-1H-[1,2,4]triazole]: 3.7; for `CC1COC(Cn2ncnc2S)(c2ccc(Oc3ccc(Cl)cc3)cc2F)O1` (stereo not drawn) [Example 70, 2-{2-[4-(4-Chloro-phenoxy)-2-fluoro-phenyl]-4-methyl-[1,3]dioxolan-2-yl-methyl}-2H-[1,2,4]triazole-3-thiol]: 3.5; for `CC1COC(Cn2ncnc2S)(c2cc(F)c(Oc3ccc(Cl)cc3)cc2F)O1` (stereo not drawn) [Example 63, 2-{2-[4-(4-Chloro-phenoxy)-2,5-difluoro-phenyl]-4-methyl-[1,3]dioxolan-2-ylmethyl}-2H-[1,2,4]triazole-3-thiol]: 3.2.

`CC1COC(Cn2ncnc2S)(c2ccc(Oc3ccc(Cl)cc3)c(F)c2)O1` (stereo not drawn) [Example 69, 2-{2-[4-(4-Chloro-phenoxy)-3-fluoro-phenyl]-4-methyl-[1,3]dioxolan-2-yl-methyl}-2H-[1,2,4]triazole-3-thiol] came in with a logP of 3.6.

Assay in another data set: not given
In the case of `CC1COC(Cn2cncn2)(c2ccc(Oc3ccccc3)c(F)c2)O1` (stereo not drawn) [Example 35, 1-{2-[3-Fluoro-4-phenoxy-phenyl]-4-methyl-[1,3]dioxolan-2-ylmethyl}-1H-[1,2,4]triazole], the melting point (usually the temperature of the solid-liquid transition) lay in the range of 108 to 110 °C. On the same count and under the same terms, in the case of `CC1COC(Cn2cncn2)(c2cc(F)c(Oc3ccccc3)cc2F)O1` (stereo not drawn) [Example 40, 1-{2-[3,6-Difluoro-4-phenoxy-phenyl]-4-methyl-[1,3]dioxolan-2-ylmethyl}-1H-[1,2,4]triazole] it was 102 to 104 °C; in that of `CC1COC(Cn2cncn2)(c2cc(F)c(Oc3ccc(Cl)cc3)cc2F)O1` (stereo not drawn) [Example 37, 1-{2-[4-(4-Chloro-phenoxy)-2,5-difluoro-phenyl]-4-methyl-[1,3]dioxolan-2-ylmethyl}-1H-[1,2,4]triazole], 86 to 88 °C. Still for that read-out and setting: the same measure for `CC1COC(Cn2cncn2)(c2ccc(Oc3cc(F)ccc3F)cc2Cl)O1` (stereo not drawn) [Example 26, 1-{2-[2-Chloro-4-(2,5-difluoro-phenoxy)-phenyl]-4-methyl-[1,3]dioxolan-2-ylmethyl}-1H-[1,2,4]triazole]: 119.9 °C; for `CCC1COC(Cn2cncn2)(c2ccc(Oc3ccc(F)cc3F)cc2)O1` (stereo not drawn) [Example 5, 1-{2-[4-(2,4-Difluoro-phenoxy)-phenyl]-4-ethyl-[1,3]dioxolan-2-ylmethyl}-1H-[1,2,4]triazole]: 112 to 114 °C; for `CC1COC(Cn2ncnc2S)(c2cc(F)c(Oc3ccccc3)c(F)c2)O1` (stereo not drawn) [Example 68, 2-{2-[3,5-Difluoro-4-phenoxy-phenyl]-4-methyl-[1,3]dioxolan-2-yl-methyl}-2H-[1,2,4]triazole-3-thiol]: 139 to 141 °C.

The compound `CC1COC(Cn2ncnc2S)(c2ccc(Oc3ccccc3)c(F)c2)O1` (stereo not drawn) [Example 67, 2-{2-[3-Fluoro-4-phenoxy-phenyl]-4-methyl-[1,3]dioxolan-2-yl-methyl}-2H-[1,2,4]triazole-3-thiol] gave a melting point of 62 to 64 °C.

In the case of `CCC1COC(Cn2cncn2)(c2ccc(Oc3c(F)cccc3F)cc2)O1` (stereo not drawn) [Example 9, 1-{2-[4-(2,6-Difluoro-phenoxy)-phenyl]-4-ethyl-[1,3]dioxolan-2-ylmethyl}-1H-[1,2,4]triazole], the melting point lay in the range of 90 to 95 °C. Still for that read-out and setting: the same measure for `CC1COC(Cn2cncn2)(c2ccc(Oc3c(F)cccc3Cl)cc2)O1` (stereo not drawn) [Example 6, 1-{2-[4-(6-Chloro-2-fluoro-phenoxy)-phenyl]-4-methyl-[1,3]dioxolan-2-ylmethyl}-1H-[1,2,4]triazole]: 112 to 114 °C. Regarding `CCCC1COC(Cn2ncnc2S)(c2ccc(Oc3ccc(Cl)cc3)cc2Cl)O1` (stereo not drawn) [Example 65, 2-{2-[2-Chloro-4-(4-chloro-phenoxy)-phenyl]-4-propyl-[1,3]dioxolan-2-yl-methyl}-2H-[1,2,4]triazole-3-thiol], the melting point lay within 105 to 106 °C. The same measure, in the same setting: the same measure for `COCC1COC(Cn2ncnc2S)(c2ccc(Oc3ccc(Cl)cc3)cc2Cl)O1` (stereo not drawn) [Example 66, 2-{2-[2-Chloro-4-(4-chloro-phenoxy)-phenyl]-4-methoxymethyl-[1,3]dioxolan-2-ylmethyl}-2H-[1,2,4]triazole-3-thiol]: 153 to 155 °C; for `CC1COC(Cn2cncn2)(c2ccc(Oc3ccc(Cl)cc3F)cc2)O1` (stereo not drawn) [Example 3, 1-{2-[4-(4-Chloro-2-fluoro-phenoxy)-phenyl]-4-methyl-[1,3]dioxolan-2-ylmethyl}-1H-[1,2,4]triazole]: 113 to 115 °C; for `CC1COC(Cn2cncn2)(c2ccc(Oc3ccc(F)cc3F)cc2)O1` (stereo not drawn) [Example 4, 1-{2-[4-(2,4-Difluoro-phenoxy)-phenyl]-4-methyl-[1,3]dioxolan-2-ylmethyl}-1H-[1,2,4]triazole]: 83 to 86 °C.

For the origin of these results see patent US20120088663A1, “Triazole Compounds Carrying a Sulfur Substituent” (BASF SE, priority 2009, published 2012).
